{"source": "patent US7674586B2", "about": "“Methods of identifying modulators of L-glutamate-gated chloride channel proteins from Rhipicephalus sanguineus” (Merial Limited, priority 2000, dated 2010)", "key": {"RsGluCl1 (T12)": {"tested_on": "RsGluCl1 (T12)", "assay": "Two-microelectrode voltage clamp of Xenopus oocytes injected with RsGluCl1 T12 RNA", "format": "cell-based, Rhipicephalus sanguineus", "conditions": "for channel activation / current in response (qualitative): RsGluCl1 expressed in Xenopus oocytes", "experimental": "(§1) Xenopus laevis oocytes were prepared and injected using standard methods previously described [Arena, J. P., Liu, K. K., Paress, P. S. & Cully, D. P. Mol. Pharmacol. 40, 368-374 (1991); Arena, J. P., Liu, K. K., Paress, P. S., Schaeffer, J. M. & Cully, D. F., Mol. Brain. Res. 15, 339-348 (1992)]. Adult female Xenopus laevis were anesthetized with 0.17% tricaine methanesulfonate and the ovaries were surgically removed and placed in a solution consisting of (mM): NaCl 82.5, KCl 2, MgCl2 1, HEPES 5, NaPyruvate 2.5, Penicillin G. 100,000 units/L, Streptomycin Sulfate 1000 mg/L, pH 7.5 (Mod. OR-2). Ovarian lobes were broken open, rinsed several times in Mod. OR-2, and incubated in 0.2% collagenase (Sigma, Type1) in Mod. OR-2 at room temperature with gentle shaking. After 1 hour the collagenase solution was renewed and the oocytes were incubated for an additional 30-90 min until approximately 50% of the oocytes were released from the ovaries. Stage V and VI oocytes were selected and placed in media containing (mM): NaCl 96, KCl 2, MgCl2 1, CaCl2 1.8, HEPES 5, NaPyruvate 2.5, theophylline 0.5, gentamicin […], pH 7.5 (ND-96) for 16-24 hours before injection. Oocytes were injected with 50 nl of Dv8, Dv9, RsGluCl1 or RsGluCl2 RNA at a concentration of 0.2 mg/ml. Oocytes were incubated at 18° C. for 1-6 days in ND-96 before recording.\n(§2) Recordings were made at room temperature in modified ND-96 consisting of (mM: NaCl 96, MgCl2 1, CaCl2 0.1, BaCl2 3.5, HEPES 5, pH 7.5. Oocytes were voltage clamped using a Dagan CA1 two microelectrode amplifier (Dagan Corporation, Minneapolis, Minn.) interfaced to a Macintosh 7100/80 computer. The current passing electrode was filled with 0.7 M KCl, 1.7 M KCitrate, and the voltage recording electrode was filled with 1 M KCl. Throughout the experiment oocytes were superfused with modified ND-96 (control solution) or with ND-96 containing potential channel activators and blockers at a rate of approximately 3 ml/min. Data were acquired at 100 Hz and filtered at 33.3 Hz using Pulse software from HEKA Elektronik (Lambrecht, Germany). All recordings were performed from a holding potential of either 0 or −30 mV.\ncRNA was synthesized from the RsGluCl 1S clone T12 and expressed in Xenopus oocytes. The channel encoded by RsGluCl-1 is a glutamate-gated chloride channel activated by IVM-PO4."}, "RsGluCl2": {"tested_on": "RsGluCl2", "assay": "Two-microelectrode voltage clamp of Xenopus oocytes injected with RsGluCl2 RNA", "format": "cell-based, Rhipicephalus sanguineus", "conditions": "for channel activation / current in response (qualitative): RsGluCl2 expressed in Xenopus oocytes as a single functional channel", "experimental": "as §1\nas §2, with “All recordings were performed from a holding potential of either 0 or −30 mV.” left out"}}}
{"compound": "N[C@@H](CCC(=O)O)C(=O)O", "note": "[glutamate]", "values": [{"measurement": "concentration at which current activation was maximal", "setting": "RsGluCl1 (T12); RsGluCl1 T12 RNA in Xenopus oocytes, FIG. 10", "value": 10, "unit": "µM"}, {"measurement": "channel activation / current in response (qualitative)", "setting": "RsGluCl1 (T12)", "value": "exhibits a current"}, {"measurement": "channel activation / current in response (qualitative)", "setting": "RsGluCl2", "value": "failed to activate a current"}]}
{"compound": "CC[C@H](C)[C@H]1O[C@]2(CC[C@@H]1C)C[C@@H]1C[C@@H](C/C=C(\\C)[C@@H](O[C@H]3C[C@H](OC)[C@@H](O[C@H]4C[C@H](OC)[C@@H](O)[C@H](C)O4)[C@H](C)O3)[C@@H](C)/C=C/C=C3\\CO[C@@H]4[C@H](O)C(C)=C[C@@H](C(=O)O1)[C@]34O)O2", "note": "[ivermectin, 22,23-dihydro-avermectin B1a]", "values": [{"measurement": "current produced on application", "setting": "RsGluCl1 (T12); 100 nM, compared with the glutamate-activated current, RsGluCl1 T12 in Xenopus oocytes", "value": "produces a similar although non-inactivating current"}, {"measurement": "concentration at which current activation was maximal", "setting": "RsGluCl2; RsGluCl2 expressed in Xenopus oocytes, FIG. 11", "value": "~1", "unit": "µM"}]}
{"compound": "ivermectin phosphate", "values": [{"measurement": "channel activation / current in response (qualitative)", "setting": "RsGluCl1 (T12)", "value": "activated"}, {"measurement": "channel activation / current in response (qualitative)", "setting": "RsGluCl2", "value": "exhibit a current"}]}
